Measured values as given in patent publication US20250255867A1 (Kadmon Corporation, LLC, priority 2022, published 2025).

System: patients with cGVHD
Test: Example 1: pulmonary function (percent predicted FEV1, FVC, DLco, TLC, RV) change from baseline
Assay type: in vivo, human
Procedure: Change From Baseline in Percent Predicted Forced Expiratory Volume in 1 Second (FEV1) at Each Specified Time Points. FEV1 was the volume of air exhaled from the lungs in the first second of a forced expiration as measured by spirometer. Baseline value was defined as valid and last non-missing value obtained within 28 days prior to participant receiving first study medication. EOT visit was performed within 3 days after the participant's last dose of study drug. […] Analysis was performed on mITT population. Here, ‘number analyzed’=participants with available data for each specified category. Here, ‘0’ in the number analyzed field signifies that none of the participants were available for the analysis at the specified time points.
Change From Baseline in Percent Predicted Forced Vital Capacity (FVC) at Each Specified Time Points. FVC was the total amount of air (in liters) exhaled from the lungs during the lung function test measured by spirometer which assessed the change in lung function related to the disease status. Baseline value was defined as valid and last non-missing value obtained within 28 days prior to participant receiving first study medication. EOT visit was performed within 3 days after the participant's last dose of study drug. […] Analysis was performed on mITT population. Here, ‘number analyzed’=participants with available data for each specified category. Here, ‘0’ in the number analyzed field signifies that none of the participants were available for the analysis at the specified time points.
Change From Baseline in Percent Predicted Hemoglobin (HGB) Corrected Diffusing Capacity of Lung for Carbon Monoxide (DLco) at Each Specified Time Points. DLco is a measurement of the ability of the lungs to transfer gases from the air to the blood. Change from baseline in diffusing capacity of the lung for carbon monoxide (percent predicted hemoglobin level corrected) was reported for this measure. Baseline value was defined as valid and last non-missing value obtained within 28 days prior to participant receiving first study medication. EOT visit was performed within 3 days after the participant's last dose of study drug. […] Analysis was performed on mITT population. Here, ‘number analyzed’=participants with available data for each specified category. Here, ‘0’ in the number analyzed field signifies that none of the participants were available for the analysis at the specified time points.
Change From Baseline in Percent Predicted Total Lung Capacity (TLC) at Each Specified Time Points. TLC is the volume of air in the lungs upon the maximum effort of inspiration. Baseline value was defined as valid and last non-missing value obtained within 28 days prior to participant receiving first study medication. EOT visit was performed within 3 days after the participant's last dose of study drug. […] Analysis was performed on mITT population. Here, ‘number analyzed’=participants with available data for each specified category.

CC(C)NC(=O)COc1cccc(-c2nc(Nc3ccc4[nH]ncc4c3)c3ccccc3n2)c1 [Belumosudil, 2-{3-[4-(1H-indazol-5-ylamino)-2-quinazolinyl]phenoxy}-N-(propan-2-yl) acetamide] was tested, and the “Change From Baseline in Percent Predicted Residual Volume (RV), Mean (Standard Deviation)” value (Cohort 1: 200 mg QD, Cycle 3, Day 1, n=14) was 0.2 (22.2) percent predicted RV, the “Change From Baseline in Percent Predicted Residual Volume (RV), Mean (Standard Deviation)” value (Cohort 1: 200 mg QD, Cycle 5, Day 1, n=13) was 5.2 (24.5) percent predicted RV and the “Change From Baseline in Percent Predicted Residual Volume (RV), Mean (Standard Deviation)” value (Cohort 1: 200 mg QD, Cycle 7, Day 1, n=11) was 4.9 (29.1) percent predicted RV. For the same compound, the “Change From Baseline in Percent Predicted Residual Volume (RV), Mean (Standard Deviation)” value (Cohort 1: 200 mg QD, Cycle 9, Day 1, n=9) was 6.4 (27.4) percent predicted RV, the “Change From Baseline in Percent Predicted Residual Volume (RV), Mean (Standard Deviation)” value (Cohort 1: 200 mg QD, Cycle 11, Day 1, n=7) was 22.1 (29.6) percent predicted RV and the “Change From Baseline in Percent Predicted Residual Volume (RV), Mean (Standard Deviation)” value (Cohort 1: 200 mg QD, Cycle 12, Day 1, n=1) was −28.0 (—) percent predicted RV. For the same compound, the “Change From Baseline in Percent Predicted Residual Volume (RV), Mean (Standard Deviation)” value (Cohort 1: 200 mg QD, Cycle 13, Day 1, n=7) was 20.3 (19.9) percent predicted RV, the “Change From Baseline in Percent Predicted Residual Volume (RV), Mean (Standard Deviation)” value (Cohort 1: 200 mg QD, Cycle 14, Day 1, n=1) was 78.0 (—) percent predicted RV and the “Change From Baseline in Percent Predicted Residual Volume (RV), Mean (Standard Deviation)” value (Cohort 1: 200 mg QD, Cycle 15, Day 1, n=6) was 20.3 (27.4) percent predicted RV. The “Change From Baseline in Percent Predicted Residual Volume (RV), Mean (Standard Deviation)” value (Cohort 1: 200 mg QD, Cycle 16, Day 1, n=1) was 0.0 (—) percent predicted RV, the “Change From Baseline in Percent Predicted Residual Volume (RV), Mean (Standard Deviation)” value (Cohort 1: 200 mg QD, Cycle 17, Day 1, n=5) was 13.6 (27.8) percent predicted RV and the “Change From Baseline in Percent Predicted Residual Volume (RV), Mean (Standard Deviation)” value (Cohort 1: 200 mg QD, Cycle 19, Day 1, n=5) was 5.4 (28.7) percent predicted RV. For the same compound, the “Change From Baseline in Percent Predicted Residual Volume (RV), Mean (Standard Deviation)” value (Cohort 1: 200 mg QD, Cycle 21, Day 1, n=3) was 8.3 (10.0) percent predicted RV, the “Change From Baseline in Percent Predicted Residual Volume (RV), Mean (Standard Deviation)” value (Cohort 1: 200 mg QD, Cycle 23, Day 1, n=3) was 0.3 (5.1) percent predicted RV and the “Change From Baseline in Percent Predicted Residual Volume (RV), Mean (Standard Deviation)” value (Cohort 1: 200 mg QD, Cycle 24, Day 1, n=1) was −4.0 (—) percent predicted RV. For the same compound, the “Change From Baseline in Percent Predicted Residual Volume (RV), Mean (Standard Deviation)” value (Cohort 1: 200 mg QD, Cycle 25, Day 1, n=2) was 1.0 (9.9) percent predicted RV, the “Change From Baseline in Percent Predicted Residual Volume (RV), Mean (Standard Deviation)” value (Cohort 1: 200 mg QD, Cycle 26, Day 1, n=1) was −3.0 (—) percent predicted RV and the “Change From Baseline in Percent Predicted Residual Volume (RV), Mean (Standard Deviation)” value (Cohort 1: 200 mg QD, Cycle 27, Day 1, n=2) was 19.5 (41.7) percent predicted RV. The “Change From Baseline in Percent Predicted Residual Volume (RV), Mean (Standard Deviation)” value (Cohort 1: 200 mg QD, Cycle 29, Day 1, n=2) was −13.0 (42.4) percent predicted RV, the “Change From Baseline in Percent Predicted Residual Volume (RV), Mean (Standard Deviation)” value (Cohort 1: 200 mg QD, Cycle 37, Day 1, n=1) was −54.0 (—) percent predicted RV and the “Change From Baseline in Percent Predicted Residual Volume (RV), Mean (Standard Deviation)” value (Cohort 1: 200 mg QD, Cycle 38, Day 1, n=1) was 8.0 (—) percent predicted RV. The “Change From Baseline in Percent Predicted Residual Volume (RV), Mean (Standard Deviation)” value (Cohort 1: 200 mg QD, Cycle 39, Day 1, n=2) was 43.0 (89.1) percent predicted RV, the “Change From Baseline in Percent Predicted Residual Volume (RV), Mean (Standard Deviation)” value (Cohort 1: 200 mg QD, Cycle 40, Day 1, n=1) was −1.0 (—) percent predicted RV and the “Change From Baseline in Percent Predicted Residual Volume (RV), Mean (Standard Deviation)” value (Cohort 1: 200 mg QD, Cycle 41, Day 1, n=1) was 80.0 (—) percent predicted RV. The “Change From Baseline in Percent Predicted Residual Volume (RV), Mean (Standard Deviation)” value (Cohort 1: 200 mg QD, Cycle 43, Day 1, n=1) was 58.0 (—) percent predicted RV, the “Change From Baseline in Percent Predicted Residual Volume (RV), Mean (Standard Deviation)” value (Cohort 1: 200 mg QD, Cycle 47, Day 1, n=1) was 42.0 (—) percent predicted RV and the “Change From Baseline in Percent Predicted Residual Volume (RV), Mean (Standard Deviation)” value (Cohort 1: 200 mg QD, Cycle 48, Day 1, n=1) was −50.0 (—) percent predicted RV. The “Change From Baseline in Percent Predicted Residual Volume (RV), Mean (Standard Deviation)” value (Cohort 1: 200 mg QD, Cycle 49, Day 1, n=1) was −14.0 (—) percent predicted RV, the “Change From Baseline in Percent Predicted Residual Volume (RV), Mean (Standard Deviation)” value (Cohort 1: 200 mg QD, Cycle 51, Day 1, n=1) was 22.0 (—) percent predicted RV and the “Change From Baseline in Percent Predicted Residual Volume (RV), Mean (Standard Deviation)” value (Cohort 1: 200 mg QD, Cycle 52, Day 1, n=1) was −4.0 (—) percent predicted RV. For the same compound, the “Change From Baseline in Percent Predicted Residual Volume (RV), Mean (Standard Deviation)” value (Cohort 1: 200 mg QD, Cycle 53, Day 1, n=1) was 22.0 (—) percent predicted RV, the “Change From Baseline in Percent Predicted Residual Volume (RV), Mean (Standard Deviation)” value (Cohort 1: 200 mg QD, Cycle 54, Day 1, n=1) was 4.0 (—) percent predicted RV and the “Change From Baseline in Percent Predicted Residual Volume (RV), Mean (Standard Deviation)” value (Cohort 1: 200 mg QD, Cycle 55, Day 1, n=1) was 53.0 (—) percent predicted RV. For the same compound, the “Change From Baseline in Percent Predicted Residual Volume (RV), Mean (Standard Deviation)” value (Cohort 1: 200 mg QD, Cycle 56, Day 1, n=1) was 17.0 (—) percent predicted RV, the “Change From Baseline in Percent Predicted Residual Volume (RV), Mean (Standard Deviation)” value (Cohort 1: 200 mg QD, Cycle 57, Day 1, n=1) was 18.0 (—) percent predicted RV and the “Change From Baseline in Percent Predicted Residual Volume (RV), Mean (Standard Deviation)” value (Cohort 1: 200 mg QD, Cycle 58, Day 1, n=1) was 4.0 (—) percent predicted RV. For the same compound, the “Change From Baseline in Percent Predicted Residual Volume (RV), Mean (Standard Deviation)” value (Cohort 1: 200 mg QD, Cycle 60, Day 1, n=1) was −20.0 (—) percent predicted RV, the “Change From Baseline in Percent Predicted Residual Volume (RV), Mean (Standard Deviation)” value (Cohort 1: 200 mg QD, Cycle 61, Day 1, n=1) was −18.0 (—) percent predicted RV and the “Change From Baseline in Percent Predicted Residual Volume (RV), Mean (Standard Deviation)” value (Cohort 1: 200 mg QD, Cycle 62, Day 1, n=1) was −8.0 (—) percent predicted RV. For the same compound, the “Change From Baseline in Percent Predicted Residual Volume (RV), Mean (Standard Deviation)” value (Cohort 1: 200 mg QD, Cycle 63, Day 1, n=1) was 6.0 (—) percent predicted RV, the “Change From Baseline in Percent Predicted Residual Volume (RV), Mean (Standard Deviation)” value (Cohort 1: 200 mg QD, Cycle 67, Day 1, n=1) was 2.0 (—) percent predicted RV and the “Change From Baseline in Percent Predicted Residual Volume (RV), Mean (Standard Deviation)” value (Cohort 1: 200 mg QD, EOT, n=11) was 6.3 (24.3) percent predicted RV. For the same compound, the “Change From Baseline in Percent Predicted Residual Volume (RV), Mean (Standard Deviation)” value (Cohort 2: 200 mg BID, Cycle 3, Day 1, n=12) was −4.6 (18.8) percent predicted RV, the “Change From Baseline in Percent Predicted Residual Volume (RV), Mean (Standard Deviation)” value (Cohort 2: 200 mg BID, Cycle 5, Day 1, n=11) was −11.5 (26.9) percent predicted RV and the “Change From Baseline in Percent Predicted Residual Volume (RV), Mean (Standard Deviation)” value (Cohort 2: 200 mg BID, Cycle 7, Day 1, n=8) was −9.9 (17.1) percent predicted RV. The “Change From Baseline in Percent Predicted Residual Volume (RV), Mean (Standard Deviation)” value (Cohort 2: 200 mg BID, Cycle 8, Day 1, n=1) was −28.0 (—) percent predicted RV, the “Change From Baseline in Percent Predicted Residual Volume (RV), Mean (Standard Deviation)” value (Cohort 2: 200 mg BID, Cycle 9, Day 1, n=8) was −19.9 (24.3) percent predicted RV and the “Change From Baseline in Percent Predicted Residual Volume (RV), Mean (Standard Deviation)” value (Cohort 2: 200 mg BID, Cycle 10, Day 1, n=2) was −47.5 (0.7) percent predicted RV. The “Change From Baseline in Percent Predicted Residual Volume (RV), Mean (Standard Deviation)” value (Cohort 2: 200 mg BID, Cycle 11, Day 1, n=6) was −10.5 (28.3) percent predicted RV and the “Change From Baseline in Percent Predicted Residual Volume (RV), Mean (Standard Deviation)” value (Cohort 2: 200 mg BID, Cycle 12, Day 1, n=1) was −5.0 (—) percent predicted RV.
